In patent US6235780A, “ω-cycloalkyl-prostaglandin E1 derivatives” (Ono Pharmaceutical Co., Ltd., priority 1998, dated 2001):
pKi: −log10 of the molar value.

Key:
mouse EP2 = molecular target: T1, mouse EP2 (Mus musculus, UniProt Q62053); test: Binding assay using expression cell of prostanoids receptor subtype: 3H-PGE2 binding inhibition, EP2; settings: 2.5 nM 3H-PGE2, CHO cell membrane fraction, pH 6.0, room temperature, 1 hour; read-out: Dissociation Constant Ki, EP2
T1 construct: expressed in transfected cells; host or cells: CHO cells
Method: (§1) (i) Binding assay using expression cell of prostanoids receptor subtype
(§2) The preparation of membrane fraction was carried out according to the method of Sugimoto et al. [J. Biol. Chem., 267, 6463-6466 (1992)], using expression CHO cell of the prostanoids receptor subtype (mouse EP1, EP2, EP3α, EP4).
(§3) The standard assay mixture containing membrane fraction (0.5 mg/ml), and ^3 H-PGE2 in a final volume of 200 μl was incubated at room temperature for 1 hour. The reaction was terminated by addition of 3 ml of ice-cooled buffer. The mixture was filtered through a GF/B glass filter under reduced pressure. The radioactivity associated with the filter was measured by liquid scintillation counter.
(§4) Kd and Bmax values were determined from Scatchard plots [Ann. N.Y. Acad. Sci., 51, 660 (1949)]. Non-specific binding was calculated as the binding in the presence of an excess (10 μM) of unlabeled PGE2. In the measurement of ^3 H-PGE2 binding inhibitory activity, 2.5 nM of ^3 H-PGE2 and various concentrations of the compounds of the present invention were added. The following buffer was used in all reactions.
(§5) Buffer; 10 mM potassium phosphate (pH 6.0), 1 mM EDTA, 10 mM MgCl2, 0.1 M NaCl.
(§6) The dissociation constant Ki (μM) of each compound was calculated by the following equation.

mouse EP1 = molecular target: T2, mouse EP1 (Mus musculus, UniProt P35375); test: Binding assay using expression cell of prostanoids receptor subtype: 3H-PGE2 binding inhibition, EP1; settings: 2.5 nM 3H-PGE2, CHO cell membrane fraction, pH 6.0, room temperature, 1 hour; read-out: Dissociation Constant Ki, EP1
T2 construct: expressed in transfected cells; host or cells: CHO cells
T2 sequence (P35375 1-405): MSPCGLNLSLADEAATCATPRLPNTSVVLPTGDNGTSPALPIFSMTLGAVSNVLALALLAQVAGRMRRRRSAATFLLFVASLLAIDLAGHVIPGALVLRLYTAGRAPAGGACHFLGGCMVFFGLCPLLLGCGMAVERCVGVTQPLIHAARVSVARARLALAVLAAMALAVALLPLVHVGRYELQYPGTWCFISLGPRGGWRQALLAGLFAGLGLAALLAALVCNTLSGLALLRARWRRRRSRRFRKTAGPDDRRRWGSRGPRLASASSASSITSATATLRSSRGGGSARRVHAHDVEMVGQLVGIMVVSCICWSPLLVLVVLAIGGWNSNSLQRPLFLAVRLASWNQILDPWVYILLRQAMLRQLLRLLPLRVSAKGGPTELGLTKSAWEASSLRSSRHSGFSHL
Method: as §1, §2, §3, §4, §5, §6

mouse EP3α = molecular target: T3, mouse EP3α (Mus musculus, UniProt P30557); test: Binding assay using expression cell of prostanoids receptor subtype: 3H-PGE2 binding inhibition, EP3α; settings: 2.5 nM 3H-PGE2, CHO cell membrane fraction, pH 6.0, room temperature, 1 hour; read-out: Dissociation Constant Ki, EP3α
T3 construct: expressed in transfected cells; host or cells: CHO cells
T3 sequence (P30557 1-365): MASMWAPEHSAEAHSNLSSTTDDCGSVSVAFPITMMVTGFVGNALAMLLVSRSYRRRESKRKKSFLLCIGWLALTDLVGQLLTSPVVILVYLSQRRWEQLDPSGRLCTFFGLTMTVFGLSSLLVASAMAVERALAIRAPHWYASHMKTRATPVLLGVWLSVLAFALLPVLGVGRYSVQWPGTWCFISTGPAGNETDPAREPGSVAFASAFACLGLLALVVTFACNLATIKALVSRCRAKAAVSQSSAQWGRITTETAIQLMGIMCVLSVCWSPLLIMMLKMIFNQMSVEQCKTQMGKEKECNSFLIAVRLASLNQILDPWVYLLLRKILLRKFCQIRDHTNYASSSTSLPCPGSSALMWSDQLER
Method: as §1, §2, §3, §4, §5, §6

mouse EP4 = molecular target: T4, mouse EP4 (Mus musculus, UniProt P32240); test: Binding assay using expression cell of prostanoids receptor subtype: 3H-PGE2 binding inhibition, EP4; settings: 2.5 nM 3H-PGE2, CHO cell membrane fraction, pH 6.0, room temperature, 1 hour; read-out: Dissociation Constant Ki, EP4
T4 construct: expressed in transfected cells; host or cells: CHO cells
Method: as §1, §2, §3, §4, §5, §6

T1 sequence (Q62053 whole entry): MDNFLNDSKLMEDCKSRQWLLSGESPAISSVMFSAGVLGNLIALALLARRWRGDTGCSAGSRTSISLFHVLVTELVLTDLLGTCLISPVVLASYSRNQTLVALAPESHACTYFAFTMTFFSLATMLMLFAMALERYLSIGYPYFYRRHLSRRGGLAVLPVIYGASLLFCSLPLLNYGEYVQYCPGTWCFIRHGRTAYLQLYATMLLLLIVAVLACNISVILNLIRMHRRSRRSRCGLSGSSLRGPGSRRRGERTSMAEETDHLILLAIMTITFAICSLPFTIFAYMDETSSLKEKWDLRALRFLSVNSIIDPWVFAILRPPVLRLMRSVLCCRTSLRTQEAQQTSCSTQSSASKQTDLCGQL
T4 sequence (P32240 whole entry): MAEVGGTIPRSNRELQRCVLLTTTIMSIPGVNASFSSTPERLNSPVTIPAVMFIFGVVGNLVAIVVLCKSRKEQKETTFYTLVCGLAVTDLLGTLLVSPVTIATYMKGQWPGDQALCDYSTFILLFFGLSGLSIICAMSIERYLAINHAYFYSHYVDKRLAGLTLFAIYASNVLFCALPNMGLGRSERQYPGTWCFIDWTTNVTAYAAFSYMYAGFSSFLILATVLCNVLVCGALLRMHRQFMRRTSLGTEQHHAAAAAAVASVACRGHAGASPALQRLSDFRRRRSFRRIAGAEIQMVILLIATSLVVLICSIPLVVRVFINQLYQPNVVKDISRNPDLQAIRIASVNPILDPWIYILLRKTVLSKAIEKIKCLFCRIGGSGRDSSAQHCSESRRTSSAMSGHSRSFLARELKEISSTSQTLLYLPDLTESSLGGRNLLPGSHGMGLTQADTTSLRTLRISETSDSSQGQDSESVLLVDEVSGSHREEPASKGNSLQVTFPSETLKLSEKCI

| SMILES | pKi (mouse EP2) | pKi (mouse EP1) | pKi (mouse EP3α) | pKi (mouse EP4) |
| --- | --- | --- | --- | --- |
| CCC1([C@@H](O)CCC[C@@H]2[C@@H](CCCCCCC(=O)O)[C@H](Cl)C[C@H]2O)CCC1 [Example 3(a), (9β,11α,16α)-9-Chloro-11,16-dihydroxy-17,17-propano-20-norprostanoic acid] | 7.77 | 5.46 | < 5.00 | < 5.00 |
| CCC1([C@@H](O)C/C=C/[C@@H]2[C@@H](CCCCCCC(=O)O)[C@H](Cl)C[C@H]2O)CCC1 [Example 2, (9β,11α,16α)-9-Chloro-11,16-dihydroxy-17,17-propano-20-norprosta-13E-enoic acid] | 8.09 | 5.24 | < 5.00 | 5.77 |
| CCC1([C@@H](O)C/C=C/[C@@H]2[C@@H](CCCCCCC(=O)O)[C@H](F)C[C@H]2O)CCC1 [Example 2(a), (9β,11α,16α)-9-Fluoro-11,16-dihydroxy-17,17-propano-20-norprosta-13E-enoic acid] | 7.18 | < 5.00 | < 5.00 | < 5.00 |
